Reference: US6815170B1, “Methods for lymph node identification” (John Wayne Cancer Institute, priority 1999, dated 2004)
“Also recorded” adds a separate entry of the source.

Columns and labels:
malignant melanoma = conditions: liver and lung; cited from earlier work
sentinel lymph node = test: Intraoperative lymphatic mapping / sentinel lymph node dissection with histologic evaluation for carbon particles; format: in vivo, Sprague-Dawley rats; conditions: for basins in which afferent lymphatic channel and stained (sentinel) node were identified: 0.04 cc intradermal, lower extremity, incision 5 min after injection
From the text: Twenty-two adult Sprague-Dawley rats weighing 300-500 g were obtained after receiving approval from the Animal Care and Use Committee at the Harbor-UCLA Research and Education Institute. All animals were obtained at least one day prior to planned procedures.
Isosulfan blue dye (Lymphazurin 1%) was obtained from Hirsch Industries, Inc. (Richmond, Va.). Carbon dye containing 6% carbon black (# 4415) was obtained from Sanford Corporation (Bellwood, Ill.) and either used alone at full strength or mixed with isosulfan blue and/or sterile normal saline in the concentrations shown in Table 1.
All mapping solutions containing ink were sterilized in an autoclave at 121° C. for 25 m, prior to injection.
All procedures were performed under general anesthesia. Rats were anesthetized with a mixture of ketamine (42.9 mg/kg), xylazine (8.6 mg/kg), and acepromazine (1.4 mg/kg). A half-dose of this mixture was readministered at 60 minutes and then every 30 minutes. Buprenorphine (0.01-0.05 mg/kg) was administered subcutaneously for postoperative analgesia.
The inguinal regions of the animals were shaved. A 29-gauge needle with a 1-cc tuberculin syringe was used to inject 0.04 cc of the mapping solution intradermally just below the medial aspect of the knee on the lower extremity. Five minutes later, and under sterile conditions, an incision was made over the region of the inguinal lymph nodes. […] The lymphatic was followed to the first stained lymph node. Further dissection was carried out to identify additional stained nodes. All stained nodes were removed and placed in formalin. Nonstained nodes in the same drainage basin were removed and fixed in a similar fashion, and analyzed for carbon particles. The identical procedure was performed on the contralateral extremity of each animal using an alternative mapping mixture.
Lymph nodes were placed in paraffin blocks, serially sectioned, and stained with hematoxylin and eosin (H and E). Each lymph node was evaluated by light microscopy for the presence of carbon particles.

Structure (SMILES) | uptake by non-tumor tissue (malignant melanoma) | basins in which afferent lymphatic channel and stained (sentinel) node were identified (sentinel lymph node; listed as Isosulfan blue) | basins in which afferent lymphatic channel and stained (sentinel) node were identified (sentinel lymph node; listed as Isosulfan blue dye) | total number of sentinel nodes (sentinel lymph node; 6 basins)
CCN(CC)CCNC(=O)c1ccc(I)cc1 [IDAB, N-(diethylaminoethyl)4-iodobenzamide] | taken up in high concentrations by non-melanoma cells in the liver and lung | – | – | –
CCN(CC)c1ccc(C(=C2C=CC(=[N+](CC)CC)C=C2)c2cc(S(=O)(=O)[O-])ccc2S(=O)(=O)[O-])cc1.[Na+] [isosulfan blue dye, isosulfan blue] | – | effectively identified the lymphatic channel and sentinel node(s); also recorded: clearly identified one sentinel node in each paired basin | all 6 | 8
